# Where no end group is shown, it is not given here.
# What was measured:
# Format in all cases: cell-based, human
# [1] = system: VCAM-1 mRNA, EA.hy926 cells; assay: VCAM-1 mRNA expression by RT-PCR in EA.hy926 cells; conditions: 300 µM peptide 16 h, then 100 ng/mL TNF-α 6 h; p = 0.01 (BP2), 0.03 (BP3), 0.02 (BP4)
# Experimental: (§1) EA.hy926 cells, the hybrid human umbilical vein endothelial cell line, were obtained from the American Type Culture Collection (ATCC® CRL2922™, Rockville, MD, USA). Cells were cultured in high glucose Dulbecco’s Modified Eagle’s Medium (DMEM), containing 10% heat-inactivated fetal bovine serum (FBS, Biowest, Riverside, CA, USA) and 50 U/mL of penicillin and 50 µg/mL streptomycin (Sigma Aldrich Chemical Co., Saint Louis, MO, USA). Cells were grown in 5% CO2 in a humidified air incubator at 37 °C. Subculture was performed when 90% confluence was reached.
# (§2) EA.hy926 were seeded in six-well plates at 0.25 × 10^6 cells/well in DMEM supplemented with 5% FBS. Cells were treated with 300 µM of each peptide for 16 h. Then, 100 ng/mL TNF-α or 300 µM H2O2 were added for an additional 6 h or 24 h, respectively.
# (§3) Total RNA was extracted from EA.hy926 cells using 300 µL Trisure™ (Bioline, Taunton, MA, USA) reagent and Direct-zol™ RNA MiniPrep (Zymo Research Irvine, Irvine, CA, USA) according to the manufacturer’s protocol. Total RNA was reverse-transcribed into complementary DNA (Sensifast cDNATM Synthesis kit, Bioline, Taunton, MA, USA). The mRNA levels of the target genes were quantified by RT-PCR using SensiFAST SYBER Hi-ROX Kit (Bioline, Taunton, MA, USA) with StepOnePlus Real-Time PCR System (Applied Biosystems, Foster City, CA, USA). Briefly, 5 µL of 1:5 diluted cDNA was added to the qPCR reaction containing 10 μL 2X SensiFAST Mix and 400 nM of each primer in a total volume of 20 μL.
# (§4) Specific and validated primers for human glyceraldehyde-3-phosphate dehydrogenase (GADPH), intercellular adhesion marker-1 (ICAM-1), vascular cell adhesion marker-1 (VCAM-1), endothelial nitric oxide synthase (eNOS), interleukin 6 (IL-6), catalase, SOD (Super Oxide Dismutase), NADPH (Nicotinamide Adenine Dinucleotide Phosphate oxidase) and Bax (proapoptosis regulator) genes were used (Sigma-Aldrich Chemical Co., Saint Louis, MO, USA). […]
# (§5) The relative quantification of gene expression was determined by the comparative fold change […] method. […]
# NF-κB, EA.hy926 cells = assay: NF-κB dual luciferase reporter assay; conditions: 300 µM peptide 16 h, then 50 ng/mL TNF-α 6 h
# Experimental: To evaluate whether the synthetic peptides could modulate the NF-κB biological activity, a luciferase reporter assay was carried out, using the Renilla reporter as a specificity control and indicator of cell proliferation. In this study, NF-B activity was induced at a lower concentration of TNF-α (50 ng/mL) because of the high sensitivity of the approach. The normalized firefly/Renilla luciferase activity was reduced by around 25% of the activity when cells were pretreated with the BP1 (p = 0.002), BP2 (p = 0.003), and BP3 (p = 0.003) synthetic peptides (Figure 3). […] The basal activity for NF-κB was not inhibited by synthetic peptides without TNF-α stimulation (data not shown).
# The dual luciferase assay has been widely used in cell lines to rapidly and accurately determine the activity of the promoter of NF-κB. […]
# For luciferase reporter assays, 80,000 cells/well were seeded in 24-well plates overnight, followed by cotransfection with 0.5 μg pNF-κB:Luc/pRL-CMV at a ratio of 10:1 using 1.5 μL trans-it X2 reagent (Myrus®, Madison, WI, USA). […] NF-κB-dependent firefly luciferase activity and NF-κB-independent Renilla luciferase activity were assessed using Dual-Luciferase® Reporter Assay System (Promega, Madison, WI, USA) in a Luminometer Optocomp I (MGM Instruments). […]
# [2] = system: ICAM-1 surface expression, EA.hy926 cells; assay: ICAM-1 surface expression by flow cytometry (MFI); conditions: for ICAM-1 surface density (in words): 300 µM peptide + TNF-α vs TNF-α activated cells, all p < 0.05; for ICAM-1 MFI: preincubation with 300 µM peptide, then 100 ng/mL TNF-α, six independent experiments, mean ± SD, p vs TNF-α: BP1 0.03, BP2 0.009, BP3 0.09, BP4 0.04, control 71.36 ± 8.31
# Experimental: as §1, §2
# To measure adhesion molecule content in human endothelial cells by flow cytometry, the cell monolayer was detached and fixed before immunofluorescence labelling. The following antibodies were used per sample: 20 µL anti-ICAM-1/CD54-phycoerythrin (PE) (clone HA58, BD Biosciences, Franklin Lakes, NJ, USA) and 5 µL anti-VCAM-1/CD106-PerCP-Cy5.5 (clone 51–10C9; BD Biosciences, San Jose, CA, USA), according to the manufacturer’s protocol. Stained cells (10,000 events) were examined by flow cytometry (FACS Calibur, Becton Dickinson, Mountain View, CA, USA) in a simultaneous two-color analysis with FL2 (PE) and FL3 (PerCP-Cy5.5) channels. Markers were set according to the negative controls to quantify the percentage of positively stained cells. Mean Fluorescence Intensity (MFI) was calculated for each antigen (MFI of total stained cells-MFI of negative control cells).
# [3] = system: eNOS mRNA, EA.hy926 cells; assay: eNOS mRNA expression by RT-PCR in EA.hy926 cells; conditions: 300 µM peptide 16 h, then 100 ng/mL TNF-α 6 h; p = 0.0003 (BP1), 0.04 (BP2)
# Experimental: as §1, §2, §3, §4, §5
substance,measurement,setting,value
AAATP [BP4],VCAM-1 mRNA expression vs TNF-α stimulated cells,[1],downregulated
same,NF-κB activation (in words),"NF-κB, EA.hy926 cells; BP4 p = 0.012",repressed by BP4 to a lesser degree
same,ICAM-1 surface density (in words),[2],reduced ICAM-1 surface density
same,ICAM-1 MFI,[2],926.01 ± 152.46
KAAAATP [BP2],VCAM-1 mRNA expression vs TNF-α stimulated cells,[1],downregulated
same,reduction of normalized firefly/Renilla NF-κB luciferase activity,"NF-κB, EA.hy926 cells; vs TNF-α, p = 0.002 (BP1), 0.003 (BP2), 0.003 (BP3), three independent experiments",around 25%
same,ICAM-1 surface density (in words),[2],reduced ICAM-1 surface density
same,ICAM-1 MFI,[2],1064.42 ± 32.02
same,eNOS mRNA expression vs TNF-α stimulated cells,[3],recovered
